Measured values from patent US10647680B2, “Urea compound, preparation method therefor and medical use thereof” (Ancureall Pharmaceutical (Shanghai) Co., Ltd., priority 2016, dated 2020).

Legend:
[1] = tested on: MOLM-13 (FLT3 ITD+/− mutant type); assay: In vitro growth inhibition (GI50), MOLM-13; type: cell-based, human; conditions: for GI50: Homo sapiens, MOLM-13, Cell lines of leukemia, read-out: GI 50 MOLM-13 FLT3 (ITD+/−); for inhibition activity against the growth of MOLM-13 cells compared with AC220: compared with the control compound AC220
[2] = tested on: NCI-H292 (EGFR WT); assay: In vitro growth inhibition (GI50), NCI-H292; type: cell-based; conditions: Homo sapiens
Source text: Tumor cell line is an effective cell model for studying the inhibition of tumor cell growth or proliferation in vitro. In the present invention, a representative tumor cell line was selected to determine the cell growth inhibition activity of the present compound. All cell lines used were from ATCC, DSMZ, and the Cell Bank of the Chinese Academy of Sciences. Cell culture conditions and methods were in accordance with the requirements of each cell line. Cells were subcultured in vitro for no more than 3 passages each time, and as required, single-clone purification and identification of cell lines could be carried out.
The cell culture media used were RPMI1640 (Gibco), MEM (Gibco), McCOY'S5A (Gibco), and IMDM (Gibco). The complete medium was prepared by supplement with 5˜20% fetal calf serum (Gibco), 1% double-antibiotics (10000 units/mL penicillin and 10000 units/mL), 2 mM glutamine or 1 mM sodium pyruvate, respectively.
Human epidermal cancer cell line A431 (EGFR WT, amplification and high expression, from Shanghai Cell Bank of Chinese Academy of Sciences and ATCC), human lung cancer cell line NCI-H292 (EGFR WT, purchased from Shanghai Cell Bank of Chinese Academy of Sciences), NSCLC cell lines PC-9 and HCC827 (EGFR exon19 E746-A750 deletion, two cell lines are sensitive to the first-generation EGFR PTK inhibitor), NSCLC cell line NCI-H1975 (EGFR L858R/T790M and the first-generation EGFR inhibitor resistance, ATCC) were cultured with 1×RPMI1640 complete medium (supplement with 10% FBS), respectively.
Adherent cells were digested with 0.25% pancreatin-EDTA (Gibco). The suspension cells were collected by centrifugation. The supernatant was discarded and the cell pellet was resuspended and counted. Different cell concentrations (5˜10×10^4 cells/mL) were prepared according to the growth cycle of each cell line and then seeded on a 96-well plate (Corning), 100 μL/well. The cells were incubated overnight at 37° C., 5% CO2. The compounds were added to the cells on the second day with 2 wells in parallel. The final concentration of organic solvent shall not exceed 1%. The cells were continually incubated for 3 to 5 days, and then subjected to MTT assay.
The compound of the present invention and the control compound were dissolved in DMSO (Sigma) respectively, with the purity of more than 98%. The compound was stored in a concentration of 10 mM at −20° C. and diluted to 2- or 10-fold series prior to use.
Dojindo CCK8 reagent kit was used as MTT assay. THERMO […] FC meter was used as microplate reader.
For adherent cells, culture medium was removed and immediately replaced with the fresh prepared medium which contains 10% CCK8 reagent (100 μL/well). For the suspension cells, CCK8 was directly added to 10% of the final concentration. The cells were continually incubated for 1˜4 h. When a dark yellow color could be observed in the solvent control wells, the absorbance value at OD450 nm was measured and the cell growth rate was calculated according to the following formula: Cell Growth Rate (%)=100*(T−T0)/(C−T0) T=optical density of drug treatment cell well—optical density of blank control well; T0=optical density of cell well before drug treatment—optical density of blank control well; C=optical density of cell well of solvent control group—optical density of blank control well. The concentration value of 50% inhibition of cell growth (GI50) was calculated according to the drug concentration and cell growth rate curve. The experiment was independently repeated 1˜3 times, and subject to biological statistical analysis. 4. Experimental Results
Tumor cell growth inhibition test was performed by selecting representative compounds (compounds 4, 11, 12, 16, 27, 68, 71, 77, 79, 89 and 116 of the present invention). The initial concentration of the compound was 5,000 nM, then it was serially diluted by 2-fold or 10-fold to 0.01 nM. The GI50 value of each test compound was calculated according to the GI50 assay and calculation method. […]

GI50 [1] [nM] | GI50 [2] [nM] | SMILES | inhibition activity against the growth of MOLM-13 cells compared with AC220 [1]
0.1 to 1 | > 2500 | CC(C)(C)c1cc(NC(=O)Nc2ccc(-n3cnc4cc(OCCO)ccc43)cc2)[nH]n1 [Compound 79, 1-(5-tert-butyl-2H-pyrazol-3-yl)-3-{4-[5-(2-hydroxy-ethoxyl)-benzimidazol-1-yl]-phenyl]urea] | stronger inhibition activity
0.1 to 1 | > 2500 | CC(C)(C)c1cc(NC(=O)Nc2ccc(-n3cnc4cc(OCCN5CCOCC5)ccc43)cc2)[nH]n1 [Compound 89, 1-(5-tert-butyl-2H-pyrazol-3-yl)-3-{4-[5-(2-morpholin-4-yl-ethoxyl)-benzimidazol-1-yl]-phenyl}-urea] | stronger inhibition activity
0.1 to 1 | > 2500 | CC(C)(C)c1cc(NC(=O)Nc2ccc(-n3cnc4cc(O)ccc43)cc2)no1 [Compound 4, 1-(5-tert-butyl-isoxazol-3-yl)-3-[4-(5-hydroxy-benzimidazol-1-yl)-phenyl]-urea] | 
0.1 to 1 | > 2500 | CC(C)(C)c1cc(NC(=O)Nc2ccc(-n3cnc4ccccc43)cc2)[nH]n1 [Compound 68, 1-(4-benzimidazol-1-yl-phenyl)-3-(5-tert-butyl-2H-pyrazol-3-yl)-urea] | 
0.01 to 0.1 | > 2500 | COc1ccc2c(c1)ncn2-c1ccc(NC(=O)Nc2cc(C(C)(C)C)n[nH]2)cc1 [Compound 71, 1-(5-tert-butyl-2H-pyrazol-3-yl)-3-[4-(5-methoxyl-benzimidazol-1-yl)-phenyl]-urea] | stronger inhibition activity
0.1 to 1 | > 2500 | CC(C)(C)c1cc(NC(=O)Nc2ccc(-n3cnc4cc(OCCN5CCOCC5)ccc43)cc2)no1 [Compound 16, 1-(5-tert-butyl-isoxazol-3-yl)-3-{4-[5-(2-morpholin-4-yl-ethoxyl)-benzimidazol-1-yl]-phenyl}-urea] | 
10 to 100 | > 2500 | CC(C)(C)c1cc(N)n(C(=O)Nc2ccc(-n3cnc4ccccc43)cc2)n1 [Compound 116, 5-amino-3-tert-butyl-pyrazol-1-carboxylic acid (4-benzimidazol-1-yl-phenyl)-amide] | 
0.01 to 0.1 | > 2500 | CC(C)(C)c1cc(NC(=O)Nc2ccc(-n3cnc4cc(OCCO)ccc43)cc2)no1 [Compound 11, 1-(5-tert-butyl-isoxazol-3-yl)-3-{4-[5-(2-hydroxy-ethoxyl)-benzimidazol-1-yl]-phenyl]-urea] | stronger inhibition activity
0.1 to 1 | > 2500 | CC(C)(C)c1cc(NC(=O)Nc2ccc(-n3cnc4ccc(OCCN5CCOCC5)cc43)cc2)no1 [Compound 27, 1-(5-tert-butyl-isoxazol-3-yl)-3-{4-[6-(2morpholin-4-yl-ethoxyl)-benzimidazol-1-yl]-phenyl}-urea] | 

SMILES | GI50 [1] [nM] | GI50 [2] [nM] | inhibition activity against the growth of MOLM-13 cells compared with AC220 [1]
COCCOc1ccc2c(c1)ncn2-c1ccc(NC(=O)Nc2cc(C(C)(C)C)n[nH]2)cc1 [Compound 77, 1-(5-tert-butyl-2H-pyrazol-3-yl)-3-{4-[5-(2-methoxyl-ethoxyl)-benzimidazol-1-yl]-phenyl}-urea] | 0.01 to 0.1 | > 2500 | stronger inhibition activity
